Results published in ChEMBL document CHEMBL1201862, “PubChem BioAssay data set” (2004).
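In this assay, cells in 96-well plates receive the compound at five concentrations for 48 hours. Endpoints are linearly interpolated between the surrounding concentrations. GI50 marks 50% less growth.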 Active and inactive are the calls of the source. No stated cut-off is given here; in the data, active = GI50 up to about 1.1 µM and inactive = higher.

Assays:
Assay in all cases: NCI tumour cell line growth inhibition, 48 h
[1] = tested on: CCRF-CEM
[2] = tested on: NCI-H226
[3] = tested on: SNB-75
[4] = tested on: HOP-92
[5] = tested on: EKVX
[6] = tested on: SF-268
[7] = tested on: SK-MEL-5
[8] = tested on: PC-3
[9] = tested on: SN12C
[10] = tested on: OVCAR-4
[11] = tested on: 786-0
[12] = tested on: SR
[13] = tested on: MCF7
[14] = tested on: NCI/ADR-RES
[15] = tested on: OVCAR-5
[16] = tested on: HOP-62
[17] = tested on: Hs-578T
[18] = tested on: NCI-H522
[19] = tested on: CAKI-1
[20] = tested on: Malme-3M
[21] = tested on: MDA-N
[22] = tested on: BT-549
[23] = tested on: ACHN
[24] = tested on: HT-29
[25] = tested on: RPMI-8226
[26] = tested on: SNB-19
[27] = tested on: SK-MEL-28
[28] = tested on: SF-295
[29] = tested on: DU-145
[30] = tested on: MDA-MB-231
[31] = tested on: UO-31
[32] = tested on: MOLT-4
[33] = tested on: IGROV-1
[34] = tested on: HL-60
[35] = tested on: HCT-116
[36] = tested on: T47D
[37] = tested on: KM12
[38] = tested on: M14
[39] = tested on: SK-MEL-2
[40] = tested on: U-251
[41] = tested on: HCC 2998
[42] = tested on: NCI-H23
[43] = tested on: SF-539
[44] = tested on: TK-10
[45] = tested on: COLO 205
[46] = tested on: UACC-257
[47] = tested on: SK-OV-3
[48] = tested on: A549
[49] = tested on: UACC-62
[50] = tested on: OVCAR-8
[51] = tested on: MDA-MB-435
[52] = tested on: K562
[53] = tested on: NCI-H460
[54] = tested on: RXF 393
[55] = tested on: LOX IMVI
[56] = tested on: SW-620
[57] = tested on: A498
[58] = tested on: HCT-15
[59] = tested on: OVCAR-3

Measured: GI50

COC(=O)C(CCSC)NC(=O)CSc1nnc(COc2ccc(Cl)cc2)n1-c1ccccc1 (stereo not given)
inactive: [1] 23.7 µM | [2] 21.4 µM | [3] 16.7 µM | [4] 18.2 µM | [5] 27.6 µM | [6] 17.1 µM | [7] 18.5 µM | [8] 18.9 µM | [9] 17.8 µM | [10] 16.1 µM | [11] 16.3 µM | [12] 8.53 µM | [13] 21.1 µM | [14] 17.6 µM | [15] 19.5 µM | [16] 3.08 µM | [17] 21.4 µM | [18] 3.77 µM | [19] 16.7 µM | [20] 21.3 µM | [21] 18.9 µM | [22] 19.6 µM | [23] 18.1 µM | [24] 18.3 µM | [26] 23.5 µM | [27] 17.4 µM | [28] 17 µM | [29] 18.2 µM | [30] 17 µM | [31] 3.94 µM | [32] 13.9 µM | [33] 16 µM | [34] 18.3 µM | [35] 16.6 µM | [36] 27.5 µM | [37] 18.2 µM | [38] 18.7 µM | [39] 16 µM | [40] 17.1 µM | [41] 7.52 µM | [42] 17.8 µM | [43] 18.4 µM | [44] 19.1 µM | [45] 18.3 µM | [46] 16.9 µM | [47] 14.5 µM | [48] 26.8 µM | [49] 18.2 µM | [50] 18.6 µM | [51] 18.4 µM | [52] 24.5 µM | [53] 14.4 µM | [54] 19.1 µM | [55] 13.8 µM | [56] 21.7 µM | [57] 21.3 µM
active: [25] 0.883 µM
18.6 µM: [58]

O=C(CCc1cc(O)cc(O)c1)NCCc1cc(OCc2ccccc2)cc(OCc2ccccc2)c1
14.7 µM: [58]
inactive: [1] 7.8 µM | [2] 15.9 µM | [3] 11 µM | [4] 17.1 µM | [5] 7.24 µM | [6] 15 µM | [7] 10.6 µM | [8] 8.89 µM | [9] 14.9 µM | [11] 18.7 µM | [12] 4.83 µM | [13] 4.92 µM | [14] 17.8 µM | [15] 20.2 µM | [16] 16.4 µM | [17] 16.8 µM | [18] 11.9 µM | [19] 19.2 µM | [59] 14.7 µM | [21] 13.7 µM | [22] 16.4 µM | [23] 3.4 µM | [24] 14.8 µM | [25] 7.45 µM | [26] 2.41 µM | [27] 17.5 µM | [28] 10.4 µM | [29] 15.8 µM | [30] 10.3 µM | [31] 3.55 µM | [32] 5.35 µM | [33] 15.5 µM | [34] 2.7 µM | [35] 12.9 µM | [36] 11.2 µM | [37] 12.6 µM | [38] 13.2 µM | [39] 10.2 µM | [40] 13 µM | [41] 19.6 µM | [42] 10.4 µM | [43] 16.2 µM | [44] 21.4 µM | [45] 20.5 µM | [46] 23.6 µM | [47] 16.8 µM | [48] 5.28 µM | [49] 16.9 µM | [50] 13.7 µM | [51] 11.1 µM | [52] 4.8 µM | [53] 4.68 µM | [54] 8.55 µM | [55] 11.5 µM | [56] 15.8 µM | [57] 21.2 µM
